Test results: ChEMBL document CHEMBL1201862, “PubChem BioAssay data set” (2004)
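Values below derive from 48-hour exposures of cells grown in 96-well plates, with endpoints linearly interpolated between the two concentrations bracketing the appropriate inhibition level. Abbreviation: GI50, concentration required for 50% inhibition of growth.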 The source made the active and inactive calls. No stated cut-off is given here; in the data, active = GI50 up to about 1.1 µM and inactive = higher.

How the values were obtained:
Assay in all cases: growth of human tumour cells (NCI), 48 h
OVCAR-3 = test system: OVCAR-3
SNB-75 = test system: SNB-75
SNB-19 = test system: SNB-19
M19-MEL = test system: M19-MEL
OVCAR-4 = test system: OVCAR-4
RPMI-8226 = test system: RPMI-8226
UACC-257 = test system: UACC-257
DMS-273 = test system: DMS-273
HCT-15 = test system: HCT-15
786-0 = test system: 786-0
SR = test system: SR
XF498 = test system: XF498
SK-MEL-28 = test system: SK-MEL-28
NCI-H460 = test system: NCI-H460
NCI-H23 = test system: NCI-H23
KM-20L2 = test system: KM-20L2
SK-MEL-2 = test system: SK-MEL-2
K562 = test system: K562
CCRF-CEM = test system: CCRF-CEM
SF-268 = test system: SF-268
ACHN = test system: ACHN
UACC-62 = test system: UACC-62
DMS-114 = test system: DMS-114
NCI-H522 = test system: NCI-H522
Malme-3M = test system: Malme-3M
SF-295 = test system: SF-295
HL-60 = test system: HL-60
HCT-116 = test system: HCT-116
EKVX = test system: EKVX
RXF 393 = test system: RXF 393
IGROV-1 = test system: IGROV-1
NCI-H226 = test system: NCI-H226
CAKI-1 = test system: CAKI-1
KM12 = test system: KM12
RXF 631 = test system: RXF 631
HOP-62 = test system: HOP-62
UO-31 = test system: UO-31
OVCAR-8 = test system: OVCAR-8
HT-29 = test system: HT-29
A549 = test system: A549
SW-620 = test system: SW-620
HCC 2998 = test system: HCC 2998
LOX IMVI = test system: LOX IMVI
SK-MEL-5 = test system: SK-MEL-5
OVCAR-5 = test system: OVCAR-5
M14 = test system: M14
SF-539 = test system: SF-539
SN12C = test system: SN12C
HOP-92 = test system: HOP-92
TK-10 = test system: TK-10
COLO 205 = test system: COLO 205
DLD-1 = test system: DLD-1
SNB-78 = test system: SNB-78
U-251 = test system: U-251
SK-OV-3 = test system: SK-OV-3

Measured: GI50

CC(C)(C)[C@H]1CO[C@]2(C)[C@@H]3C[C@@H]3C(=O)N12
> 100 µM: HCT-15
inactive: OVCAR-3 > 100 µM | SNB-75 > 100 µM | SNB-19 > 100 µM | M19-MEL > 100 µM | OVCAR-4 > 100 µM | RPMI-8226 > 100 µM | UACC-257 > 100 µM | DMS-273 > 100 µM | 786-0 > 100 µM | SR > 100 µM | XF498 > 100 µM | SK-MEL-28 > 100 µM | NCI-H460 > 100 µM | NCI-H23 > 100 µM | KM-20L2 > 100 µM | SK-MEL-2 > 100 µM | K562 > 100 µM | CCRF-CEM > 100 µM | SF-268 > 100 µM | ACHN > 100 µM | UACC-62 > 100 µM | DMS-114 > 100 µM | NCI-H522 > 100 µM | Malme-3M > 100 µM | SF-295 > 100 µM | HL-60 > 100 µM | HCT-116 > 100 µM | EKVX > 100 µM | RXF 393 > 100 µM | IGROV-1 > 100 µM | NCI-H226 > 100 µM | CAKI-1 > 100 µM | KM12 > 100 µM | RXF 631 > 100 µM | HOP-62 > 100 µM | UO-31 > 100 µM | OVCAR-8 > 100 µM | HT-29 > 100 µM | A549 > 100 µM | SW-620 > 100 µM | HCC 2998 > 100 µM | LOX IMVI > 100 µM | SK-MEL-5 > 100 µM | OVCAR-5 > 100 µM | M14 > 100 µM | SF-539 > 100 µM | SN12C > 100 µM | HOP-92 > 100 µM | TK-10 > 100 µM | COLO 205 > 100 µM | DLD-1 > 100 µM | SNB-78 > 100 µM | U-251 > 100 µM | SK-OV-3 > 100 µM
